Assay results: ChEMBL document CHEMBL4364302, “4-Aminoquinoline-based compounds as antileishmanial agents that inhibit the energy metabolism of Leishmania” (Eur J Med Chem, 2019)

Experiments:
Leishmania infantum [1] = assay: Antileishmanial activity against promastigote stage of Leishmania infantum MHOM/TN/80/IPT1 assessed as reduction in parasite viability measured after 72 hrs by MTT assay; format: functional, organism-based; settings: MHOM/TN/80/IPT1, 72 h
Leishmania braziliensis [2] = assay: Antileishmanial activity against intracellular amastigote stage of Leishmania braziliensis MHOM/IT/2006/ISS2848 assessed as reduction in parasite viability measured after 72 hrs by MTT assay; format: functional, organism-based; settings: MHOM/IT/2006/ISS2848, 72 h
Leishmania tropica [3] = assay: Antileishmanial activity against promastigote stage of Leishmania tropica MHOM/IT/2012/ISS3130 assessed as reduction in parasite viability measured after 72 hrs by MTT assay; format: functional, organism-based; settings: MHOM/IT/2012/ISS3130, 72 h
Leishmania tropica [4] = assay: Antileishmanial activity against intracellular amastigote stage of Leishmania tropica MHOM/IT/2012/ISS3130 assessed as reduction in parasite viability measured after 72 hrs by MTT assay; format: functional, organism-based; settings: MHOM/IT/2012/ISS3130, 72 h
Leishmania braziliensis [5] = assay: Antileishmanial activity against promastigote stage of Leishmania braziliensis MHOM/IT/2006/ISS2848 assessed as reduction in parasite viability measured after 72 hrs by MTT assay; format: functional, organism-based; settings: MHOM/IT/2006/ISS2848, 72 h
[6] = Selectivity index, ratio of IC50 for human THP1 cells to IC50 for intracellular amastigote stage of Leishmania infantum; format: toxicity, cell-based; settings: read-out: Ratio IC50
[7] = Selectivity index, ratio of IC50 for human CFPAC-1 cells to IC50 for intracellular amastigote stage of Leishmania infantum; format: toxicity, cell-based; settings: read-out: Ratio IC50
Leishmania infantum [8] = assay: Antileishmanial activity against miltefosine and paromomycin resistant promastigote stage of Leishmania infantum LEM2126 isolate measured after 72 hrs by MTT assay; format: functional, organism-based
Leishmania infantum [9] = assay: Antileishmanial activity against antimony resistant promastigote stage of Leishmania infantum LEM3323 isolate measured after 72 hrs by MTT assay; format: functional, organism-based
Leishmania infantum [10] = assay: Antileishmanial activity against antimony resistant intracellular amastigote stage of Leishmania infantum LEM3323 isolate measured after 72 hrs by MTT assay; format: functional, organism-based
Leishmania infantum [11] = assay: Antileishmanial activity against miltefosine resistant promastigote stage of Leishmania infantum LEM5159 isolate measured after 72 hrs by MTT assay; format: functional, organism-based
Leishmania infantum [12] = assay: Antileishmanial activity against miltefosine and paromomycin resistant intracellular amastigote stage of Leishmania infantum LEM2126 isolate measured after 72 hrs by MTT assay; format: functional, organism-based
Leishmania infantum [13] = assay: Antileishmanial activity against promastigote stage of Leishmania infantum LEM3049 isolate measured after 72 hrs by MTT assay; format: functional, organism-based
[14] = Selectivity index, ratio of IC50 for human THP1 cells to IC50 for antimony resistant intracellular amastigote stage of Leishmania infantum LEM3323 isolate; format: toxicity, cell-based; settings: read-out: Ratio IC50
[15] = Selectivity index, ratio of IC50 for human THP1 cells to IC50 for intracellular amastigote stage of Leishmania infantum LEM3049 isolate; format: toxicity, cell-based; settings: read-out: Ratio IC50
[16] = Selectivity index, ratio of IC50 for human THP1 cells to IC50 for miltefosine and paromomycin resistant intracellular amastigote stage of Leishmania infantum LEM2126 isolate; format: toxicity, cell-based; settings: read-out: Ratio IC50
HMEC-1 = assay: Cytotoxicity against human HMEC1 cells assessed as cell viability measured after 72 hrs by MTT assay; format: cell-based; settings: HMEC-1, 72 h
THP-1 = assay: Cytotoxicity against human THP1 cells assessed as cell viability measured after 72 hrs by MTT assay; format: cell-based; settings: THP-1, 72 h
[17] = Selectivity index, ratio of IC50 for mouse BMDM cells to IC50 for intracellular amastigote stage of Leishmania infantum; format: toxicity, cell-based; settings: read-out: Ratio IC50
[18] = Selectivity index, ratio of IC50 for human HMEC1 cells to IC50 for intracellular amastigote stage of Leishmania infantum; format: toxicity, cell-based; settings: read-out: Ratio IC50
[19] = Selectivity index, ratio of IC50 for human THP1 cells to IC50 for miltefosine resistant intracellular amastigote stage of Leishmania infantum LEM5159 isolate; format: toxicity, cell-based; settings: read-out: Ratio IC50
BMDM = assay: Cytotoxicity against mouse BMDM cells assessed as cell viability measured after 72 hrs by MTT assay; format: cell-based
Leishmania infantum [20] = assay: Antileishmanial activity against intracellular amastigote stage of Leishmania infantum MHOM/TN/80/IPT1 assessed as reduction in parasite viability measured after 72 hrs by MTT assay; format: functional, organism-based; settings: MHOM/TN/80/IPT1, 72 h
Leishmania infantum [21] = assay: Antileishmanial activity against intracellular amastigote stage of Leishmania infantum LEM3049 isolate measured after 72 hrs by MTT assay; format: functional, organism-based
Leishmania infantum [22] = assay: Antileishmanial activity against miltefosine resistant intracellular amastigote stage of Leishmania infantum LEM5159 isolate measured after 72 hrs by MTT assay; format: functional, organism-based
CFPAC-1 = assay: Cytotoxicity against human CFPAC-1 cells assessed as cell viability measured after 72 hrs by MTT assay; format: cell-based; settings: CFPAC-1, 72 h

`NC[C@@H]1O[C@H](O[C@H]2[C@@H](O)[C@H](O[C@@H]3[C@@H](O)[C@H](N)C[C@H](N)[C@H]3O[C@H]3O[C@H](CO)[C@@H](O)[C@H](O)[C@H]3N)O[C@@H]2CO)[C@H](N)[C@@H](O)[C@@H]1O` [PAROMOMYCIN] showed an IC50 (Leishmania infantum [1]) of 427 µM.

Molecule `CCCCCCCCCCCCCCCCOP(=O)([O-])OCC[N+](C)(C)C` [MILTEFOSINE] has an IC50 (Leishmania infantum [1]) of 1.43 µM, an IC50 (Leishmania braziliensis [2]) of 0.89 µM and an IC50 (Leishmania tropica [3]) of 10.5 µM. For the same molecule, the IC50 (Leishmania tropica [4]) was 1.15 µM and the IC50 (Leishmania braziliensis [5]) was 7.59 µM.

`C[C@@H]1[C@H](O)[C@@H](C)/C=C/C=C/C=C/C=C/C=C/C=C/C=C/[C@H](O[C@@H]2O[C@H](C)[C@@H](O)[C@H](N)[C@@H]2O)C[C@@H]2O[C@](O)(C[C@@H](O)C[C@@H](O)[C@H](O)CC[C@@H](O)C[C@@H](O)CC(=O)O[C@H]1C)C[C@H](O)[C@H]2C(=O)O` [AMPHOTERICIN B] gave a selectivity ratio [6] of over 50, a selectivity ratio [7] of over 50 and an IC50 (Leishmania infantum [8]) of 0.1 µM. For the same molecule, the IC50 (Leishmania infantum [9]) was 0.07 µM, the IC50 (Leishmania infantum [10]) was 0.18 µM and the IC50 (Leishmania infantum [11]) was 0.05 µM. The IC50 (Leishmania infantum [12]) was 0.16 µM, the IC50 (Leishmania infantum [13]) was 0.06 µM and the selectivity ratio [14] was 155. The selectivity ratio [15] was 164, the selectivity ratio [16] was 174 and the IC50 (HMEC-1) was over 10 µM. The IC50 (Leishmania infantum [1]) was 0.09 to 0.15 µM, the IC50 (Leishmania braziliensis [2]) was 0.2 µM and the IC50 (THP-1) was over 10 µM. The selectivity ratio [17] was over 50, the selectivity ratio [18] was over 50 and the IC50 (Leishmania tropica [3]; read-out: IC50) was 0.12 µM. The IC50 (Leishmania tropica [4]) was 0.16 µM, the selectivity ratio [19] was 174 and the IC50 (BMDM) was over 10 µM. It also gave an IC50 (Leishmania infantum [20]) of 0.18 µM, an IC50 (Leishmania infantum [21]) of 0.17 µM and an IC50 (Leishmania braziliensis [5]) of 0.183 µM. For the same molecule, the IC50 (Leishmania infantum [22]) was 0.16 µM and the IC50 (CFPAC-1) was over 10 µM.
